For assay [1], the system named is hedgehog signaling pathway. In words: Hedgehog signaling pathway activation (8X-Gli reporter, Gli 1 and Patched Q-RT-PCR, cyclopamine inhibition). The settings on record: M2 cells. The class given is cell-based. The procedure: M2-10B4 bone marrow stromal cells were transfected with an 8XGli luciferase reporter or the empty vector (pGL3b). Cells were subsequently treated with control vehicle, 5 μM Oxy49, or 400 ng/ml recombinant human sonic hedgehog (Shh) as positive control. After 48 hours of treatments, reporter luciferase activity was measured and normalized to Renilla luciferase activity (See FIG. 14). […] M2-10B4 bone marrow stromal cells were transfected with an 8XGli luciferase reporter or the empty vector (pGL3b). Cells were subsequently treated with control vehicle, 5 μM Oxy34, or 400 ng/ml recombinant human sonic hedgehog (Shh) as positive control. After 48 hours of treatments, reporter luciferase activity was measured and normalized to Renilla luciferase activity (See FIG. 15). […] After 48 hours of treatments, mRNA was extracted from cells and analyzed by Q-RT-PCR for expression of hedgehog target genes Gli 1 and Patched (See FIGS. 16A and 16B). […] Luciferase reporter activity using a reporter construct with 8X-Gli binding sites • 2. Q-RT-PCR analysis of the induction of hedgehog pathway target gene expression Gli 1 and Patched • 3.

Assay [2] concerns bone sialoprotein (BSP) mRNA expression. As to the kind of experiment: Q-RT-PCR for bone sialoprotein (BSP) mRNA expression. Format: cell-based. Conditions: M2-10B4 cells. The procedure: (§1) Total RNA was extracted with the RNA isolation kit from Stratagene (La Jolla, Calif.) according to the manufacturer's instructions. RNA was DNase-treated using the DNA-free kit from Ambion, Inc. (Austin, Tex.). 3 μg of RNA was reverse-transcribed using reverse transcriptase from Stratagene (La Jolla, Calif.) to make single stranded cDNA. The cDNAs were mixed with Qi SYBR Green Supermix from Bio-Rad Laboratories (Hercules, Calif.) for quantitative RT-PCR using a Bio-Rad I-cycler IQ quantitative thermocycler. All PCR samples were prepared in triplicate or quadruplicate. Each sample was added to duplicate wells of a 96-well plate. After 40 cycles of PCR, melt curves were analyzed in order to ensure primer specificity, and the identity of all PCR products were verified by sequencing and comparing with the complete mRNA sequence obtained from PubMed's GenBank. Fold changes in gene expression were calculated using the ΔΔCt method (14). […]
M2-10B4 cells were treated with control vehicle (C) or various doses (μM) of oxysterols (Oxy34 or Oxy49) as indicated. […] After 6 days of treatments, mRNA was extracted from cells and analyzed by Q-RT-PCR for BSP and GAPDH expression (See FIG. 17).
After 48 hours of treatment, RNA was isolated and analyzed for BSP expression by Q-RT-PCR as a measure of osteogenic differentiation (See FIG. 10). […]

The test system of assay [3] is M2-10B4 marrow stromal cells. In words: Alkaline phosphatase (ALP) activity assay.
Experimental: The protocol is a modification of alkaline phosphatase assay kit from Sigma. Cells are cultured in 24-well tissue culture plates. After treatments with test agents, cells are rinsed twice with PBS and scraped into 200 ml of lysis buffer (0.2% NP-40 in 1 mM MgCl2) and sonicated for 10 seconds. Next, 1 ml of reaction mixture is added to each well. Reaction mixture is 221 alkaline buffer (Sigma): stock substrate solution (1:1). Stock substrate solution is prepared by dissolving 40 mg of Sigma 104 phosphatase substrate in 10 ml of ddH2O. After addition of reaction mixture to lysed cells, incubation is performed for 30 minutes at 37 C. […] The reaction is stopped by the addition of 12 ml of 1N NaOH to each well, and absorbance is determined at 405 nm. Alkaline phosphatase activity is calculated using p-nitrophenol as a standard, according to Sigma kit's instructions. Results are normalized to total protein in each well determined using the Bio-Rad protein assay solution (Bio-Rad Laboratories).
M2-10B4 marrow stromal cells were treated with oxysterols at various doses for 3 days after which they were collected and analyzed by calorimetric assay for alkaline phosphatase activity (a marker of osteoblastic differentiation) (Table 1); the alkaline phosphatase assay described above was used.
M2-10B4 marrow stromal cells were treated with oxysterols at various doses for 3 days after which they were collected and analyzed by colorimetric assay for alkaline phosphatase activity (a marker of osteoblastic differentiation) (Table 2); the alkaline phosphatase assay described above was used.
M2-10B4 bone marrow stromal cells were treated in culture with control vehicle (C) or various oxysterol (Oxy) molecules as indicated at either 1.25 (1) or 2.5 (2) μM concentrations. After 3 days of treatment, alkaline phosphatase activity as a measure of early osteogenic differentiation of cells was measured in whole cell lysates (See FIG. 9 and Table 3); the alkaline phosphatase assay described above was used.
Assay [4] relates to marrow stromal cells. In words: Osteoinductive properties (osteoblast differentiation markers: ALP activity, osteocalcin mRNA, mineralization). The class given is cell-based. Conditions: induction of osteoblast differentiation markers. An excerpt: Oxysterols discussed in this application include those designated as Oxy22, Oxy26, Oxy27, Oxy28, Oxy39, Oxy40, Oxy41, Oxy42, Oxy48, Oxy49, Oxy20, Oxy34, Oxy36, Oxy38, Oxy50, Oxy51, Oxy52, and Oxy53. At least the following oxysterols have been identified as osteoinductive: Oxy22, Oxy26, Oxy27, Oxy28, Oxy39, Oxy40, Oxy41, Oxy42, Oxy48, Oxy49, Oxy50, Oxy51, Oxy52, and Oxy53. The osteoinductive properties of these oxysterols is shown by their ability to induce the expression of various osteoblast differentiation markers, including alkaline phosphatase activity, osteocalcin mRNA expression, and mineralization. These oxysterols are activators of the hedgehog signaling pathway.

In assay [5] the test system is M2-10B4 marrow stromal cells. In words: 45Ca incorporation assay (matrix mineralization). The class given is cell-based. The method, then: ^45Ca incorporation assay as a measure of matrix mineralization in cell monolayers was performed as previously described (45).
^45Ca incorporation assay (see Example above) was used to measure mineralization in M2 cells pre-treated with 1 μg/ml Dkk-1 or vehicle for 2 h, and then treated with control vehicle or 2.5 μM SS 12 days (See FIG. 2D).
^45Ca incorporation assay was used to measure mineralization in M2 cells pre-treated with various doses of LY, 1 μM Wm, or vehicle for 2 h, and then treated with 5 μM SS or control vehicle for 14 days (See FIG. 7C).
M2-10B4 cells were treated for 14 days with control vehicle (C) or various concentrations (μM) of oxysterols as indicated. SS refers to 20S-hydroxycholesterol+22S-hydroxycholesterol in combination. After 12 days with refeeding every 5th day, ^45Ca was added and on day 14, ^45Ca incorporation was measured (See FIG. 18).

Assay [6] concerns Naked Cuticle 2 (Nkd2) mRNA expression. The class given is cell-based. Conditions: M2 cells pre-treated 2 h with inhibitor, then 5 μM SS for 48 h. The method, then: (§2) Total RNA was extracted with the RNA isolation kit from Stratagene (La Jolla, Calif.) according to the manufacturer's instructions. RNA was DNase-treated using the DNA-free kit from Ambion, Inc. (Austin, Tex.). 3 μg of RNA was reverse-transcribed using reverse transcriptase from Stratagene (La Jolla, Calif.) to make single stranded cDNA. The cDNAs were mixed with Qi SYBR Green Supermix from Bio-Rad Laboratories (Hercules, Calif.) for quantitative RT-PCR using a Bio-Rad I-cycler IQ quantitative thermocycler. All PCR samples were prepared in triplicate or quadruplicate. Each sample was added to duplicate wells of a 96-well plate. After 40 cycles of PCR, melt curves were analyzed in order to ensure primer specificity, and the identity of all PCR products were verified by sequencing and comparing with the complete mRNA sequence obtained from PubMed's GenBank. Fold changes in gene expression were calculated using the ΔΔCt method (14). All primers were designed using the Beacon Designer software from Bio-Rad Laboratories (Hercules, Calif.). Primers used are as follows: OCN (5′-[…]-3′ (SEQ ID NO: 1) and 5′-[…]-3′ (SEQ ID NO: 2)), Axin2(5′[…]-3′ (SEQ ID NO: 3) and 5′-[…]-3′ (SEQ ID NO: 4)), Cyclin D1(5′-[…]-3′ (SEQ ID NO: 5) and 5′-[…]-3′ (SEQ ID NO: 6)), NKD2 (5′-[…]-3′ (SEQ ID NO: 7) and 5′[…]-3′ (SEQ ID NO: 8)), WIF-1 (5′-[…]-3′ (SEQ ID NO: 9) and 5′-[…]-3′ (SEQ ID NO: 10)), and GAPDH (5′-[…]-3′ (SEQ ID NO: 11) and 5′-[…]-3′ (SEQ ID NO: 12)).
(§3) M2 cells were treated with 5 μM SS, 200 ng/ml Shh, or control vehicle for 48 h. RNA was isolated and analyzed by Q-RT-PCR for Nkd2 (E) and WIF-1 (F) expression (See FIGS. 4E and 4F).
(§4) M2 cells were pre-treated for 2 h with vehicle or cyclopamine (Cyc) at the concentrations indicated. Next, cells were treated with 5 μM SS or control vehicle for 48 h. RNA was isolated and analyzed for Nkd2 (A) and WIF-1 (B) expression by Q-RT-PCR (See FIGS. 5A and 5B).
(§5) M2 cells were pre-treated for 2 h with Dkk-1 or vehicle. Next, cells were treated with 5 μM SS or control vehicle for 48 h. RNA was isolated and analyzed for Nkd2 (C), Wif-1 (D), and Ptch (E) expression (See FIGS. 5C-5E).
(§6) M2 cells were pre-treated for 2 h with 5 μM LY, 2.5 μM Wm, or vehicle followed by treatment with 5 μM SS or control vehicle for 48 h. RNA was isolated and analyzed for Nkd2 (FIG. 7E) and Wif-1 (FIG. 7F) expression.

Assay [7] deals with Wnt Inhibitory factor-1 (Wif-1) mRNA expression. The class given is cell-based. The settings on record: M2 cells pre-treated 2 h with inhibitor, then 5 μM SS for 48 h. The procedure: as §2, §3, §4, §5, §6
The test system of assay [8] is Patched (Ptch) mRNA expression. In words: Q-RT-PCR for Patched (Ptch) mRNA expression. The settings on record: M2 cells pre-treated 2 h with inhibitor, then 5 μM SS for 48 h. Format: cell-based. The method, then:
as §1, with “(14). All primers were designed using the Beacon Designer software from Bio-Rad Laboratories (Hercules, Calif.).” for “(14).”
M2 cells were pre-treated for 2 h with Dkk-1 or vehicle. […] RNA was isolated and analyzed for Nkd2 (C), Wif-1 (D), and Ptch (E) expression (See FIGS. 5C-5E).

For assay [9], the system named is osteocalcin (OCN) mRNA expression. As to the kind of experiment: Q-RT-PCR for osteocalcin (OCN) mRNA expression. The class given is cell-based. The settings on record: M2 cells pre-treated 2 h with inhibitor, then SS. The procedure:
as §1, with “(14). All primers were designed using the Beacon Designer software from Bio-Rad Laboratories (Hercules, Calif.).” for “(14).”
M2 cells were pre-treated with vehicle or 1 μg/ml Dkk-1 for 2 h followed by treatment with control vehicle or 5 μM SS for 6 days. RNA was isolated and analyzed by Q-RT-PCR for OCN expression (See FIG. 2E).
RNA was analyzed for OCN expression by Q-RT-PCR and normalized to GAPDH (p<0.01 for Control versus SS and for SS versus SS+LY and SS+Wm) (See FIG. 7B).

Assay [10] relates to Runx2 DNA binding activity. As to the kind of experiment: Runx2 DNA binding activity by EMSA analysis. The class given is cell-based. The settings on record: M2 cells.
[11] abbreviates: M210B4, 72 h, read-out: Fold Induction in alkaline phosphatase activity compared to control untreated cells.
Where [12] appears, read: M210B4, 72 h, read-out: Fold Induction in alkaline phosphatase activity over control untreated cells.

Like-named read-outs stand apart in the source and are kept apart here.

On to `O=c1cc(N2CCOCC2)oc2c(-c3ccccc3)cccc12` [LY, LY 294002], for which the “Inhibition of oxysterol-induced hedgehog pathway activation” value in assay [1] is “did not inhibit”.

Take `C=C(C)CCC[C@](C)(O)[C@H]1CC[C@H]2[C@@H]3C[C@H](O)[C@H]4C[C@@H](O)CC[C@]4(C)[C@H]3CC[C@@]21C` [Oxy49, (3S,5S,6S,8R,9S,10R,13S,14S,17S)-17-((S)-2-Hydroxy-6-methylhept-6-en-2-yl)-10,13-dimethylhexadecahydro-1H-cyclopenta[a]phenanthrene-3,6-diol]: in [2], the BSP expression entry is “induce BSP expression”. Moreover, in assay [3] (setting [11]), the fold induction at 2.5 µM came to 170 and the fold induction at 5 µM amounted to 204. Also, in assay [3] (setting [12]), the fold induction at 1.25 µM was 46 and the fold induction at 2.5 µM worked out at 68. Further, the Osteoinductive property result in [4] is recorded as “osteoinductive”. Further, in assay [5] (M2-10B4 cells treated for 14 days), the “Mineralization (45Ca incorporation)” value was “increased mineralization”.

With `CC1=C2C[C@H]3[C@@H](CC=C4C[C@@H](O)CC[C@@]43C)[C@@H]2CC[C@]12O[C@@H]1C[C@H](C)CN[C@H]1[C@H]2C` [cyclopamine, reference compound], in assay [6], the “Inhibition of oxysterol-induced Nkd2 expression” value was “did not inhibit”. Besides, the “Inhibition of oxysterol-induced Wif-1 expression” value in [7] was “completely blocked”. For the same molecule, the “Inhibition of oxysterol-induced Patched (Ptch) mRNA expression” value in assay [8] is recorded as “completely abolished”.

As to `COC[C@H]1OC(=O)c2coc3c2[C@@]1(C)C1=C(C3=O)[C@@H]2CCC(=O)[C@@]2(C)C[C@H]1OC(C)=O` [Wm, wortmannin], in [1], the “Inhibition of oxysterol-induced hedgehog pathway activation” value was “did not inhibit”.

B1: Dkk-1: recombinant mouse Dickkopf related protein 1; LRP5/6 inhibitor, Wnt signaling inhibitor (protein, UniProt O54908 32-272, looked up)
Dickkopf-related protein 1: TLNSVLINSNAIKNLPPPLGGAGGQPGSAVSVAPGVLYEGGNKYQTLDNYQPYPCAEDEECGSDEYCSSPSRGAAGVGGVQICLACRKRRKRCMRHAMCCPGNYCKNGICMPSDHSHFPRGEIEESIIENLGNDHNAAAGDGYPRRTTLTSKIYHTKGQEGSVCLRSSDCAAGLCCARHFWSKICKPVLKEGQVCTKHKRKGSHGLEIFQRCYCGEGLACRIQKDHHQASNSSRLHTCQRH
B1: in assay [9], the “Inhibition of oxysterol (SS)-induced OCN mRNA expression” value is given as “did not inhibit”. For the same molecule, the “Inhibition of oxysterol-induced Runx2 DNA binding activity” value in [10] is “did not inhibit”. Further, the “Inhibition of oxysterol-induced Nkd2 expression” value in [6] is “almost completely inhibited”. Further, the “Inhibition of oxysterol-induced Wif-1 expression” value in assay [7] is “only minimally inhibited”. The “Inhibition of BMP-2-induced ALP activity” value in assay [3] (M2 cells pre-treated 2 h with 1 or 2 μg/ml Dkk-1, then 50 ng/ml BMP-2 for 3 days) is listed as “only significantly inhibited by using the higher concentration”. Moreover, the “Inhibition of Shh-induced ALP activity” value in assay [3] (M2 cells pre-treated 2 h with inhibitor, then 200 ng/ml Shh for 3 days) is recorded as “partially inhibited”. The “Inhibition of oxysterol-induced ALP activity” value in assay [3] (M2 cells pre-treated 2 h with inhibitor, then 2.5 μM SS for 3 days) was “partial but significant inhibition”. Besides, in assay [3] (M2 cells, Dkk-1 1 or 2 μg/ml without oxysterol), the “ALP activity, agent alone” value is “no observed effect”. For the same molecule, the “Inhibition of oxysterol-induced Patched (Ptch) mRNA expression” value in assay [8] is given as “did not inhibit”. Moreover, the “Inhibition of oxysterol-induced mineralization (45Ca incorporation)” value in assay [5] (M2 cells pre-treated 2 h with inhibitor, then SS for 12-14 days) was “Complete and below baseline level inhibition”.

The values are drawn from patent publication US9526737B2, “Oxysterols for activation of hedgehog signaling, osteoinduction, antiadipogenesis, and Wnt signaling” (THE REGENTS OF THE UNIVERSITY OF CALIFORNIA, priority 2007, dated 2016).
